# Results: patent publication US9067949B2, “Benzofuro[3,2-c] pyridines and related analogs as serotonin sub-type 6 (5-HT6) modulators for the treatment of obesity, metabolic syndrome, cognition and schizophrenia” (Albany Molecular Research, Inc., priority 2011, dated 2015)
# Counter-ions that a name gives are not always drawn. Like-named read-outs stand apart in the source and are kept apart here.
# Molecular target: human 5-HT6 receptor (Homo sapiens (Human), UniProt P50406)
# Assay: 5-HT6 radioligand binding assay (SPA format, [N-methyl-3H]-LSD)
# Conditions: human 5-HT6 receptor membranes, 10 nM [N-methyl-3H]-LSD, Ki by Cheng-Prusoff, read-out: human 5HT6 Ki
# Method: The relative affinities of the various compounds for the 5-HT6 receptor were measured in a radioligand binding assay, using a scintillation proximity assay (SPA) format.
# For binding analysis vs. the human receptor, samples were incubated in 50 mM Tris-HCl, pH 7.5, 5 mM MgCl2, 1 mM EDTA (4% DMSO final) with 10 nM [N-methyl-^3H]-LSD (Perkin Elmer), 2.5 ng of human 5-HT6 receptor membranes (Millipore) and 50 μg SPA beads (PVT-PEI-WGA, GE Healthcare) per well in a final volume of 0.2 mL. […] Binding reactions were performed in PicoPlate96 microtiter plates (Perkin Elmer) by consecutively adding 50 μL of each competing compound or buffer, SPA beads, radioligand and 5-HT6 receptor membranes. After an overnight incubation at room temperature on a Nutator mixer, plates were centrifuged for 15 min at 1,500 rpm, followed by incubation in the dark for 10 min. […] Total binding control contained compound dilution buffer only; nonspecific binding is determined in the presence of 100 μM 5-hydroxytryptamine. Specific binding was determined by subtracting nonspecific binding from total binding.
# All experiments were performed in duplicate using ten concentrations of competing ligand, with clozapine included as a control in every run. IC50 values were determined from specific binding data using XLfit4.1 curve fitting software from IDBS Ltd. The inhibition constant (Ki) was calculated using the Cheng-Prusoff equation: (Ki=IC50/(1+(L/KD)), where L=concentration of radioligand in the assay, and KD=affinity of the radioligand for the receptor.
# Sequence of human 5-HT6 receptor (P50406 whole entry): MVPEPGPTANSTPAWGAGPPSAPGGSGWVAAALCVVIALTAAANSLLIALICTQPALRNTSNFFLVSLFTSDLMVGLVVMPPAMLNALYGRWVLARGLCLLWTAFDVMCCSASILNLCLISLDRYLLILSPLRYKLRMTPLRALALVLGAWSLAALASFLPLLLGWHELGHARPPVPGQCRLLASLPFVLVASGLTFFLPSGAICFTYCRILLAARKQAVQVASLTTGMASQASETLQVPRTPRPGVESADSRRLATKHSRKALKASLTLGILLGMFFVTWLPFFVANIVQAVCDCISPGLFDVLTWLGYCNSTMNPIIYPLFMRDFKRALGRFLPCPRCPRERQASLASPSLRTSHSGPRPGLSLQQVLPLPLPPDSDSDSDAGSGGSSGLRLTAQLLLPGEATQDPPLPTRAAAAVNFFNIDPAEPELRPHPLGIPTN
SMILES,Ki (hydrochloride),Ki
"CC1NCCc2oc3c(Cl)cc(S(=O)(=O)c4ccccc4)cc3c21 (racemic) [Example 81a, 6-chloro-1-methyl-8-(phenylsulfonyl)-1,2,3,4-tetrahydrobenzofuro[3,2-c]pyridine hydrochloride]",0.35 nM,
"CC1Cc2oc3c(Cl)cc(S(=O)(=O)c4ccccc4)cc3c2CN1 (racemic) [Example 81b, 6-chloro-3-methyl-8-(phenylsulfonyl)-1,2,3,4-tetrahydrobenzofuro[3,2-c]pyridine hydrochloride]",19 nM,
"O=S(=O)(c1ccccc1)c1cc(Cl)c2oc3c(c2c1)CC(O)CC3 (racemic) [Example 97, 6-chloro-8-(phenylsulfonyl)-1,2,3,4-tetrahydrodibenzo[b,d]furan-2-ol]",,1.7 nM
"CC1Cc2oc3c(Cl)cc(S(=O)(=O)c4ccccc4)cc3c2CN1 (single isomer, unassigned; (+)) [Example 83b, (+) 6-chloro-3-methyl-8-(phenylsulfonyl)-1,2,3,4-tetrahydrobenzofuro[3,2-c]pyridine hydrochloride]",16 nM,
"CC1NCCc2oc3c(Cl)cc(S(=O)(=O)c4ccccc4)cc3c21 (single isomer, unassigned; (-)) [Example 82b, (−) 6-chloro-1-methyl-8-(phenylsulfonyl)-1,2,3,4-tetrahydrobenzofuro[3,2-c]pyridine hydrochloride]",0.15 nM,
"O=S(=O)(c1cccc(C(F)(F)F)c1)c1cc(Cl)c2oc3c(c2c1)CNCC3 [Example 45, 6-Chloro-8-(3-trifluoromethylphenylsulfonyl)-1,2,3,4-tetrahydrobenzofuro[3,2-c]pyridine hydrochloride]",,0.48 nM
"O=S(=O)(c1cccc(Cl)c1)c1cc(Cl)c2oc3c(c2c1)CNCC3 [Example 46, 6-Chloro-8-(3-chlorophenylsulfonyl)-1,2,3,4-tetrahydrobenzofuro[3,2-c]pyridine hydrochloride]",,0.35 nM
"O=S(=O)(c1cc(Cl)c2oc3c(c2c1)CNCC3)n1ccc2ccccc21 [Example 51, 8-(1H-Indol-1-ylsulfonyl)-6-chloro-1,2,3,4-tetrahydrobenzofuro[3,2-c]pyridine hydrochloride]",,0.2 nM
"Cc1cc(S(=O)(=O)c2ccccc2)cc2c3c(oc12)CCNC3 [Example 53, 6-Methyl-8-(phenylsulfonyl)-1,2,3,4-tetrahydrobenzofuro[3,2-c]pyridine hydrochloride]",,0.22 nM
"O=S(=O)(c1cccc(F)c1)c1ccc2c3c(oc2c1)CC1CCC3N1 (centres unmarked) [Example 66, 3-(3-Fluorophenyl)sulfonyl-6,7,8,9,10-pentahydro-7,10-epiminocyclohepta[b]benzofuran hydrochloride]",,533 nM
"COc1cc(S(=O)(=O)c2ccc3[nH]ccc3c2)cc2c3c(oc12)CCNC3 [Example 70, 8-(1H-indol-5-ylsulfonyl)-6-methoxy-1,2,3,4-tetrahydrobenzofuro[3,2-c]pyridine hydrochloride]",,0.083 nM
"O=S(=O)(c1cccc(C2CCOC2)c1)c1cc(Cl)c2oc3c(c2c1)CNCC3 (centres unmarked) [Example 71, 6-chloro-8-(3-(tetrahydrofuran-3-yl)phenylsulfonyl)-1,2,3,4-tetrahydrobenzofuro[3,2-c]pyridine hydrochloride]",,2 nM
"O=S(=O)(c1ccc(CO)cc1)c1cc(Cl)c2oc3c(c2c1)CNCC3 [Example 72, (4-((6-chloro-1,2,3,4-tetrahydrobenzofuro[3,2-c]pyridin-8-yl)sulfonyl)phenyl)methanol hydrochloride]",,12 nM
"N#Cc1cc(S(=O)(=O)c2cccc(F)c2)cc2c3c(oc12)CCNC3 [Example 73, 8-(3-fluorophenylsulfonyl)-1,2,3,4-tetrahydrobenzofuro[3,2-c]pyridine-6-carbonitrile hydrochloride]",,4.3 nM
"O=S(=O)(c1ccccc1)c1cc(CO)c2oc3c(c2c1)CNCC3 [Example 74, (8-(phenylsulfonyl)-1,2,3,4-tetrahydrobenzofuro[3,2-c]pyridin-6-yl)methanol hydrochloride]",,13 nM
"O=S(=O)(c1ccccc1)c1cc(-n2cccn2)c2oc3c(c2c1)CNCC3 [Example 76, 8-(phenylsulfonyl)-6-(1H-pyrazol-1-yl)-1,2,3,4-tetrahydrobenzofuro[3,2-c]pyridine hydrochloride]",,9.3 nM
"O=S(=O)(c1ccccc1)c1cc(-c2cn[nH]c2)c2oc3c(c2c1)CNCC3 [Example 77, 8-(phenylsulfonyl)-6-(1H-pyrazol-4-yl)-1,2,3,4-tetrahydrobenzofuro[3,2-c]pyridine hydrochloride]",,28 nM
"CNC(=O)c1cc(S(=O)(=O)c2ccccc2)cc2c3c(oc12)CCNC3 [Example 78, N-methyl-8-(phenylsulfonyl)-1,2,3,4-tetrahydrobenzofuro[3,2-c]pyridine-6-carboxamide hydrochloride]",,607 nM

SMILES,Ki (hydrochloride),Ki
"O=S(=O)(c1ccccc1)c1cc(Cl)c2oc3c(c2c1)CNC(CO)C3 (centres unmarked) [Example 86, (6-chloro-8-(phenylsulfonyl)-1,2,3,4-tetrahydrobenzofuro[3,2-c]pyridin-3-yl)methanol hydrochloride]",,522 nM
"O=S(=O)(c1ccccc1)c1cc(Cl)c2oc3c(c2c1)C(CF)NCC3 (centres unmarked) [Example 87, 6-chloro-1-fluoromethyl-8-phenylsulfonyl-1,2,3,4-tetrahydrobenzofuro[3,2-c]pyridine hydrochloride]",,4 nM
"CN(C)C(=O)C1NCCc2oc3c(Cl)cc(S(=O)(=O)c4ccccc4)cc3c21 (centres unmarked) [Example 88, 6-chloro-N,N-dimethyl-8-(phenylsulfonyl)-1,2,3,4-tetrahydrobenzofuro[3,2-c]pyridine-1-carboxamide hydrochloride]",,252 nM
"O=S(=O)(c1ccccc1)c1cc(Cl)c2oc3c(c2c1)CCNCC3 [Example 90, 7-chloro-9-(phenylsulfonyl)-2,3,4,5-tetrahydro-1H-benzofuro[2,3-d]azepine hydrochloride]",,0.25 nM
O=S(=O)(c1cc(Cl)c2oc3c(c2c1)CNCC3)c1ccccc1Cl [Example 100],,0.77 nM
O=S(=O)(c1cc(Cl)c2oc3c(c2c1)CNCC3)c1ccccc1OC(F)(F)F [Example 102],,3.3 nM
O=S(=O)(c1cccc(-n2cccn2)c1)c1cc(Cl)c2oc3c(c2c1)CNCC3 [Example 103],,2.2 nM
O=S(=O)(c1ccc(-n2cccn2)cc1)c1cc(Cl)c2oc3c(c2c1)CNCC3 [Example 104],,26 nM
O=S(=O)(c1ccc2c(c1)COCC2)c1cc(Cl)c2oc3c(c2c1)CNCC3 [Example 105],,13 nM
O=S(=O)(c1ccc2c(c1)CCOC2)c1cc(Cl)c2oc3c(c2c1)CNCC3 [Example 106],,2.5 nM
CC(C)(O)c1cccc(S(=O)(=O)c2cc(Cl)c3oc4c(c3c2)CNCC4)c1 [Example 107],,0.79 nM
CC(C)(O)c1ccc(S(=O)(=O)c2cc(Cl)c3oc4c(c3c2)CNCC4)cc1 [Example 108],,1.3 nM
COCc1ccc(S(=O)(=O)c2cc(Cl)c3oc4c(c3c2)CNCC4)cc1 [Example 109],,14 nM
O=S(=O)(c1cccc(CO)c1)c1cc(Cl)c2oc3c(c2c1)CNCC3 [Example 110],,4.4 nM
O=S(=O)(c1ccc(OC(F)F)cc1)c1cc(Cl)c2oc3c(c2c1)CNCC3 [Example 113],,2.2 nM
O=S(=O)(c1ccccc1)c1cc(Cl)c2oc3c(c2c1)CN(CCC(F)(F)F)CC3 [Example 114],,19 nM
O=S(=O)(c1ccccc1)c1cc(Cl)c2oc3c(c2c1)CN(c1cccnc1)CC3 [Example 115],,123 nM
